# Source: US7842808B2, “Anti-migraine spirocycles” (Bristol-Myers Squibb Company, priority 2002, dated 2010)
# pIC50: −log10 of the molar value.
# Biological target: T1, CGRP receptor (SK-N-MC cell membranes) (Homo sapiens, UniProt O60894+Q16602)
# T1 construct: endogenous in cells; host or cells: SK-N-MC cells (membrane homogenate)
# Experiment: CGRP Binding Assay ([125I]-CGRP radioligand binding, SK-N-MC homogenate)
# Settings: displacement of [125I]-CGRP, SK-N-MC homogenate; read-out: CGRP binding IC50
# T1 sequence (Q16602 23-461): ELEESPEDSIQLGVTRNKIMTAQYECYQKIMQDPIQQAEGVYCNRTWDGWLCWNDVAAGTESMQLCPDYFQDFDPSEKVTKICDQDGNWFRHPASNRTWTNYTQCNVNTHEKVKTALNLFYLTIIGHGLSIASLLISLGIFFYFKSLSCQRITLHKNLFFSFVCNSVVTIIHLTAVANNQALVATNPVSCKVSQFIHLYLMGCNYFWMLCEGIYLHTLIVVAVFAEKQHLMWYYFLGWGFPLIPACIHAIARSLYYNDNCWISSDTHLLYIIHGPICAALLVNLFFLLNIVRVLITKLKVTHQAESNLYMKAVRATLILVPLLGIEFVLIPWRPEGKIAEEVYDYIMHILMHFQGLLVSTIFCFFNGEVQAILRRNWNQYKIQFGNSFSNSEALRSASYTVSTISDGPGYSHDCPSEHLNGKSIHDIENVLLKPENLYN
# T1 sequence (O60894 27-148): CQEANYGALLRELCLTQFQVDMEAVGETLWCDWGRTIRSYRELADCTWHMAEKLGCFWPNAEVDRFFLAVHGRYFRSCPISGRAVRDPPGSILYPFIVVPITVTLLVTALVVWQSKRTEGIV
row,Structure (SMILES),pIC50
1,"Cc1nc(N[C@@H](CC(=O)N2CCC(N3Cc4ccccc4NC3=O)CC2)C(=O)N2CCC(N3CCCCC3)CC2)nc(N)c1N [Example 91, (L)-1-[1,4′]Bipiperidinyl-1′-yl-2-(4,5-diamino-6-methyl-pyrimidin-2-ylamino)-4-[4-(2-oxo-1,4-dihydro-2H-quinazolin-3-yl)-piperidin-1-yl]-butane-1,4-dione]",6.00 to 7.00
2,CN(C)/C=C/CN1CCN(C(=O)C(Cc2ccc3[nH]ncc3c2)NC(=O)N2CCC(N3Cc4ccccc4NC3=O)CC2)CC1 (centres unmarked) [Example 40h],< 6.00
3,O=C(N[C@@H](CC(=O)N1CCC(N2Cc3ccccc3NC2=O)CC1)C(=O)N1CCC(N2CCCCC2)CC1)c1cc2ccccc2s1 [Example 126],6.00 to 7.00
4,COC(=O)c1cccc(NC(=O)N[C@@H](CC(=O)N2CCC(N3Cc4ccccc4NC3=O)CC2)C(=O)N2CCC(N3CCCCC3)CC2)c1 [Example 196],7.00 to 8.00
5,C[C@@H](NC(=O)N[C@@H](CC(=O)N1CCC(N2Cc3ccccc3NC2=O)CC1)C(=O)N1CCC(N2CCCCC2)CC1)c1ccccc1 [Example 198],6.00 to 7.00
6,O=C(Nc1ccc(C(F)(F)F)cc1)N[C@@H](CC(=O)N1CCC(N2Cc3ccccc3NC2=O)CC1)C(=O)N1CCC(N2CCCCC2)CC1 [Example 160],6.00 to 7.00
7,O=C(Nc1ccc(Oc2ccccc2)cc1)N[C@@H](CC(=O)N1CCC(N2Cc3ccccc3NC2=O)CC1)C(=O)N1CCC(N2CCCCC2)CC1 [Example 146],7.00 to 8.00
8,"Cc1nc(N[C@@H](CC(=O)N2CCC(N3Cc4ccccc4NC3=O)CC2)C(=O)N2CCC(N3CCCCC3)CC2)nc(N)c1[N+](=O)[O-] [Example 90, (L)-2-(4-Amino-6-methyl-5-nitro-pyrimidin-2-ylamino)-1-[1,4′]bipiperidinyl-1′-yl-4-[4-(2-oxo-1,4-dihydro-2H-quinazolin-3-yl)-piperidin-1-yl]-butane-1,4-dione]",7.00 to 8.00
9,O=C(N[C@@H](CC(=O)N1CCC(N2Cc3ccccc3NC2=O)CC1)C(=O)N1CCC(N2CCCCC2)CC1)[C@@H]1C[C@H]1c1ccccc1 [Example 104],6.00 to 7.00
10,O=C(Nc1ccc(F)cc1F)N[C@@H](CC(=O)N1CCC(N2Cc3ccccc3NC2=O)CC1)C(=O)N1CCC(N2CCCCC2)CC1 [Example 156],6.00 to 7.00
11,Cc1cc(C)c(NC(=O)N[C@@H](CC(=O)N2CCC(N3Cc4ccccc4NC3=O)CC2)C(=O)N2CCC(N3CCCCC3)CC2)cc1C [Example 139],6.00 to 7.00
12,O=C(NCCc1ccccc1)N[C@@H](CC(=O)N1CCC(N2Cc3ccccc3NC2=O)CC1)C(=O)N1CCC(N2CCCCC2)CC1 [Example 138],6.00 to 7.00
13,Cc1ccc(C)c(NC(=O)N[C@@H](CC(=O)N2CCC(N3Cc4ccccc4NC3=O)CC2)C(=O)N2CCC(N3CCCCC3)CC2)c1 [Example 157],6.00 to 7.00
14,CCc1ccc(NC(=O)N[C@@H](CC(=O)N2CCC(N3Cc4ccccc4NC3=O)CC2)C(=O)N2CCC(N3CCCCC3)CC2)cc1 [Example 190],6.00 to 7.00
15,O=C(Nc1ccc2ccccc2c1)N[C@@H](CC(=O)N1CCC(N2Cc3ccccc3NC2=O)CC1)C(=O)N1CCC(N2CCCCC2)CC1 [Example 135],6.00 to 7.00
16,CN1CCN(C(=O)C(Cc2ccc3[nH]ncc3c2)NC(=O)N2CCC(N3Cc4ccccc4NC3=O)CC2)CC1 (centres unmarked) [Example 40k],< 6.00
17,"O=C(N[C@@H](CC(=O)N1CCC(N2Cc3ccccc3NC2=O)CC1)C(=O)N1CCC(N2CCCCC2)CC1)c1ccc(O)cc1 [Example 100, (L)-N-{1-([1,4′]Bipiperidinyl-1′-carbonyl)-3-oxo-3-[4-(2-oxo-1,4-dihydro-2H-quinazolin-3-yl)-piperidin-1-yl]-propyl}-4-hydroxy-benzamide]",6.00 to 7.00
18,O=C(Nc1cccc(F)c1)N[C@@H](CC(=O)N1CCC(N2Cc3ccccc3NC2=O)CC1)C(=O)N1CCC(N2CCCCC2)CC1 [Example 177],7.00 to 8.00
19,O=C(Cc1ccc(Cl)cc1)N[C@@H](CC(=O)N1CCC(N2Cc3ccccc3NC2=O)CC1)C(=O)N1CCC(N2CCCCC2)CC1 [Example 127],6.00 to 7.00
20,CCCCCCCN1CCN(C(=O)C(Cc2ccc3[nH]ncc3c2)NC(=O)N2CCC(N3Cc4ccccc4NC3=O)CC2)CC1 (centres unmarked) [Example 40b],7.00 to 8.00
21,O=C(Nc1ccc(Cl)c(C(F)(F)F)c1)N[C@@H](CC(=O)N1CCC(N2Cc3ccccc3NC2=O)CC1)C(=O)N1CCC(N2CCCCC2)CC1 [Example 152],6.00 to 7.00

row,Structure (SMILES),pIC50
1,O=C(Nc1ccccc1OC(F)(F)F)N[C@@H](CC(=O)N1CCC(N2Cc3ccccc3NC2=O)CC1)C(=O)N1CCC(N2CCCCC2)CC1 [Example 200],7.00 to 8.00
2,CCc1cccc(NC(=O)N[C@@H](CC(=O)N2CCC(N3Cc4ccccc4NC3=O)CC2)C(=O)N2CCC(N3CCCCC3)CC2)c1 [Example 142],6.00 to 7.00
3,Cc1ccc(OC(=O)N[C@@H](CC(=O)N2CCC(N3Cc4ccccc4NC3=O)CC2)C(=O)N2CCC(N3CCCCC3)CC2)cc1 [Example 132],6.00 to 7.00
4,O=C(N[C@@H](CC(=O)N1CCC(N2Cc3ccccc3NC2=O)CC1)C(=O)N1CCC(N2CCCCC2)CC1)N[C@@H]1C[C@H]1c1ccccc1 [Example 154],6.00 to 7.00
5,"O=C(C[C@H](NCc1c[nH]cn1)C(=O)N1CCC(N2CCCCC2)CC1)N1CCC(N2Cc3ccccc3NC2=O)CC1 [Example 98, (L)-1-[1,4′]Bipiperidinyl-1′-yl-2-[(1H-imidazol-4-ylmethyl)-amino]-4-[4-(2-oxo-1,4-dihydro-2H-quinazolin-3-yl)-piperidin-1-yl]-butane-1,4-dione]",< 6.00
6,O=C(Nc1cccc2ccccc12)N[C@@H](CC(=O)N1CCC(N2Cc3ccccc3NC2=O)CC1)C(=O)N1CCC(N2CCCCC2)CC1 [Example 137],6.00 to 7.00
7,"Cc1cc(CC(NC(=O)N2CCC(N3Cc4ccccc4NC3=O)CC2)C(=O)OC2CCN(Cc3ccccc3)CC2)cc2cn[nH]c12 (centres unmarked) [Example 41b, 3-(7-Methyl-1H-indazol-5-yl)-2-{[4-(2-oxo-1,4-dihydro-2H-quinazolin-3-yl)-piperidine-1-carbonyl]-amino}-propionic acid 1-benzyl-piperidin-4-yl ester]",> 8.00
8,"Cc1cc(CC(NC(=O)N2CCC(N3Cc4ccccc4NC3=O)CC2)C(=O)O[C@H](C)c2ccncc2)cc2cn[nH]c12 (stereo partly drawn) [Example 41e, 3-(7-Methyl-1H-indazol-5-yl)-2-{[4-(2-oxo-1,4-dihydro-2H-quinazolin-3-yl)-piperidine-1-carbonyl]-amino}-propionic acid (R)-1-pyridin-4-yl-ethyl ester]",> 8.00
9,O=C(Nc1cccc(C(F)(F)F)c1)N[C@@H](CC(=O)N1CCC(N2Cc3ccccc3NC2=O)CC1)C(=O)N1CCC(N2CCCCC2)CC1 [Example 153],6.00 to 7.00
10,"Cc1cc(CC(NC(=O)N2CCC3(CC2)OC(=O)Nc2ccccc23)C(=O)NC2C3CC4CC(C3)CC2C4)cc2cn[nH]c12 (racemic) [Example 28, (±)-[1-(2-adamantyl-carbamoyl)-2-(7-methyl-1H-indazol-5-yl)-ethyl]-1′,2′-dihydro-2′-oxospiro-[4H-3′,1-benzoxazine-4,4′-piperidine]-1-carboxamide]",6.00 to 7.00
11,O=C(N[C@@H](CC(=O)N1CCC(N2Cc3ccccc3NC2=O)CC1)C(=O)N1CCC(N2CCCCC2)CC1)c1ccccc1 [Example 110],6.00 to 7.00
12,O=C(Nc1ccc(F)c(F)c1F)N[C@@H](CC(=O)N1CCC(N2Cc3ccccc3NC2=O)CC1)C(=O)N1CCC(N2CCCCC2)CC1 [Example 168],6.00 to 7.00
13,"CCc1cc(CC(NC(=O)N2CCC(N3Cc4ccccc4NC3=O)CC2)C(=O)OC)cc2cn[nH]c12 (racemic) [Example 44, (±)-3-(7-Ethyl-1H-indazol-5-yl)-2-{[4-(2-oxo-1,4-dihydro-2H-quinazolin-3-yl)-piperidine-1-carbonyl]-amino}-propionic acid methyl ester]",6.00 to 7.00
14,CCOC(=O)C(C)NC(=O)N[C@@H](CC(=O)N1CCC(N2Cc3ccccc3NC2=O)CC1)C(=O)N1CCC(N2CCCCC2)CC1 (some centres unmarked) [Example 170],6.00 to 7.00
15,"Cc1cc(CC(NC(=O)N2CCC3(CC2)OC(=O)Nc2ccccc23)C(=O)N2CCN(c3ccncc3)CC2)cc2cn[nH]c12 (racemic) [Example 29, (±)-1′,2′-Dihydro-2′-oxospiro-[4H-3′,1-benzoxazine-4,4′-piperidine-1-carboxylic acid[1-(7-methyl-1H-indazol-5-ylmethyl)-2-oxo-2-(4-pyridin-4-yl-piperazin-1-yl)-ethyl]-amide]",> 8.00
16,O=C(N[C@@H](CC(=O)N1CCC(N2Cc3ccccc3NC2=O)CC1)C(=O)N1CCC(N2CCCCC2)CC1)c1cccs1 [Example 116],6.00 to 7.00
17,CC(NC(=O)N[C@@H](CC(=O)N1CCC(N2Cc3ccccc3NC2=O)CC1)C(=O)N1CCC(N2CCCCC2)CC1)c1cccc2ccccc12 (some centres unmarked) [Example 199],7.00 to 8.00
18,COc1ccc(Cl)cc1NC(=O)N[C@@H](CC(=O)N1CCC(N2Cc3ccccc3NC2=O)CC1)C(=O)N1CCC(N2CCCCC2)CC1 [Example 187],6.00 to 7.00
19,"O=C(C[C@H](NCc1ccccn1)C(=O)N1CCC(N2CCCCC2)CC1)N1CCC(N2Cc3ccccc3NC2=O)CC1 [Example 93, (L)-1-[1,4′]Bipiperidinyl-1′-yl-2-((2′-pyridyl)-methyl-amino)-4-[4-(2-oxo-1,4-dihydro-2H-quinazolin-3-yl)-piperidin-1-yl]-butane-1,4-dione]",6.00 to 7.00
20,"COC(=O)C(Cc1cc(C)c2[nH]ncc2c1)NC(=O)N1CCC2(CC1)NC(=O)Nc1ccccc12 (centres unmarked) [Example 13, 3-(7-Methyl-1H-indazol-5-yl)-2-[2′,3′-dihydro-2′-oxospiro-(piperidine-4,4′-(1H)-quinazoline)carbonylamino]-propionic acid methyl ester]",6.00 to 7.00
